# Article PMC11093748, “De novo identification of CD4^+ T cell epitopes” (Nature Methods, 2024)
# Values joined by “and” are separate entries in the source; they are usually repeats but may differ in a detail not shown here. Equal entries are not always repeated.
# Assays:
# Experiment in all cases: I-Ag7 SABR-II library screen, enrichment score
# Type in all cases: cell-based, mouse
# [1] = tested on: TCR35; conditions: TCR_Mean minus PREDICTED_TCR (slope 0.982658, intercept 4.25575e-6 on LIB_Mean), TCR 35, run PZ101
# Source text: (§1) We then asked whether SABR-IIs could be used to present a library of epitopes for CD4^+ T cell antigen discovery. To that end, we constructed a SABR-II library to present epitopes derived from pancreatic islets in I-Ag7 by curating a list of 4,075 published epitopes from the Immune Epitope Database (iedb.org)[50] and a study by Wan et al.[51] (Supplementary Table 1). Of note, this defined library consisted of unmodified epitopes from endogenous proteins, synthetic mimotopes, deamidated epitopes and hybrid insulin peptides (HIPs) that arise from post-translational fusion and are not genetically encoded in vivo[52],[53]. The epitope library was inserted into the I-Ag7 SABR-II backbone through pooled oligonucleotide synthesis, amplification and ligation-free cloning (Extended Data Fig. 3a). The I-Ag7 SABR-II-library was then expressed in NFAT–GFP Jurkat cells. We confirmed that after sequencing, the library accounted for a mean of 708 reads per epitope (Extended Data Fig. 3b). As a proof of concept, we performed co-incubation assays with Jurkat cells expressing the BDC2.5 TCR and sorted the top 1–2% of GFP^+CD69^+ cells at a rate of ~20 min per replicate with three replicates per TCR. We extracted the genomic DNA from sorted cells, amplified the SABR portion of the integrated proviruses and subjected the amplicons to Illumina sequencing (Extended Data Fig. 3c,d). The 1–2% sort gate represents >50-fold enrichment of cognate epitopes with minimal loss of signal (Extended Data Fig. 3e–h). Sequence reads were aligned to the I-Ag7 SABR-II backbone and the corresponding epitopes were scored based on their read counts. For each TCR under investigation, an enrichment score (ES) was determined for all the epitopes in a library. In each experiment, three replicates of a sort with TCR-expressing Jurkat cells were performed and reads were counted post-sequencing. In addition, three replicates of the unsorted library were also sequenced. A linear regression model was built using the unsorted library counts and used to determine the expected abundance of each epitope in the library. The ES was calculated based on the difference between the measured and the expected abundance of each epitope on a per-TCR basis (Fig. 1e). Based on ES values, two quantitative thresholds were used to determine putative cognate epitopes of a given TCR. A high-confidence zone containing clear outliers with a high ES and a low-confidence zone containing weak outliers with a moderately high ES were determined (Fig. 1e). This two-tiered strategy was used to call putative hits from screens. All the top-scoring epitopes for the BDC2.5 TCR were known BDC2.5 ligands containing the WXRM(D/E) motif (Fig. 1f,g, enriched ligands in red), a well-characterized trait of the BDC2.5 TCR[43],[54]–[56]. Across several independent experiments there was limited variation in ES values for the same TCRs and several epitopes fell into high- or low-confidence zones consistently (Extended Data Fig. 4a). Using a different TCR that was isolated from NOD mice, 4-8Ins[57], which recognized the InsB9:23 epitope ([…]), we observed a similar pattern of ES for cognate epitopes (Extended Data Fig. 4b).
# (§2) We performed systematic screening of the cloned TCRs against the I-Ag7 SABR-II library. Several TCRs along with a positive control (such as BDC2.5 or 4-8Ins) were screened individually against the library for each sort (Extended Data Fig. 6a and Supplementary Table 4). High- and low-confidence ES zones for each screened TCR were defined by the ES values of the control TCR’s cognate epitopes. For all putative cognate epitopes, single SABR-IIs were constructed, expressed in NFAT–GFP Jurkat cells and used for co-incubation with the corresponding TCRs. Co-incubation assays that yielded a GFP signal higher than that obtained in assays with no TCR were determined to be positive and the epitopes deemed true cognate ligands (Extended Data Fig. 6b,c). […]
# [2] = tested on: TCR10B; conditions: TCR_Mean minus PREDICTED_TCR (from LIB_Mean, SLOPE 0.894516, INTERCEPT 2.58857e-5), PZ51
# Source text: as §1, §2
# [3] = tested on: TCR10A; conditions: TCR_Mean minus PREDICTED_TCR (from LIB_Mean, SLOPE 0.950997, INTERCEPT 1.20253e-5), PZ47
# Source text: as §1, §2
# [4] = tested on: TCR29; conditions: TCR_Mean minus PREDICTED_TCR (slope 0.951614, intercept 1.18738e-5 on LIB_Mean), TCR 29, run PZ98
# Source text: as §1, §2
# [5] = tested on: TCR17C; conditions: TCR_Mean minus PREDICTED_TCR (from LIB_Mean, SLOPE 0.897918, INTERCEPT 2.50509e-5), PZ52
# Source text: as §1, §2
# [6] = tested on: TCR3
# Source text: as §1, §2
# [7] = tested on: TCR18
# Source text: as §1, §2
# [8] = tested on: TCR12; conditions: TCR_Mean minus PREDICTED_TCR (from LIB_Mean, SLOPE 0.937219, INTERCEPT 1.54064e-5), PZ51
# Source text: as §1, §2
# [9] = tested on: TCR34; conditions: TCR_Mean minus PREDICTED_TCR (slope 0.916696, intercept 2.04427e-5 on LIB_Mean), TCR 34, run PZ57
# Source text: as §1, §2
# [10] = tested on: TCR5
# Source text: as §1, §2
# [11] = tested on: TCR17A; conditions: TCR_Mean minus PREDICTED_TCR (from LIB_Mean, SLOPE 0.925966, INTERCEPT 1.81678e-5), PZ52
# Source text: as §1, §2
# [12] = tested on: TCR17B; conditions: TCR_Mean minus PREDICTED_TCR (from LIB_Mean, SLOPE 0.911347, INTERCEPT 2.17553e-5), PZ52
# Source text: as §1, §2
# [13] = tested on: TCR32; conditions: TCR_Mean minus PREDICTED_TCR (slope 0.962506, intercept 9.20103e-6 on LIB_Mean), TCR 32, run PZ98
# Source text: as §1, §2
# [14] = tested on: TCR28; conditions: TCR_Mean minus PREDICTED_TCR (slope 0.899229, intercept 2.47291e-5 on LIB_Mean), TCR 28, run PZ57
# Source text: as §1, §2
# [15] = I-Ag7 library, one biological experiment
# [16] = sheet TCR3-PZ37, ES = TCRObserved - TCRPredicted, TCRPredicted = LIBObserved x SLOPE + INTERCEPT, SLOPE 0.907522, INTERCEPT 2.2694e-5
# [17] = TCR18, TCR_Mean minus PREDICTED_TCR (from LIB_Mean, SLOPE 0.92089, INTERCEPT 1.94136e-5), PZ52
# [18] = sheet TCR5-PZ44, ES = TCRObserved - TCRPredicted, TCRPredicted = LIBObserved x SLOPE + INTERCEPT, SLOPE 0.90726, INTERCEPT 2.27584e-5
sequence,measurement,setting,value
AAVEEGIVAGGGVTLL,Enrichment score,[1],-8.894e-5
same,Enrichment score,[2],-7.785e-5
same,Enrichment score,[3],0.0001778
same,Enrichment score,[4],-4.805e-5
same,Enrichment score,[5],-3.436e-5
same,Enrichment score,[6]; [15],-0.00015
same,Enrichment score,[6]; [16],-0.00015
same,Enrichment score,[7]; [15],-8.9534e-5
same,Enrichment score,[7]; [17],-8.9534e-5
same,Enrichment score,[8],-3.643e-5
same,Enrichment score,[9],-0.0002018
same,Enrichment score,[10]; [15],2.521e-5 and 3.881e-5
same,Enrichment score,[10]; [18],2.521e-5
same,Enrichment score,[11],-0.0001329
same,Enrichment score,[12],-0.0001643
same,Enrichment score,[13],3.811e-5
same,Enrichment score,[14],-8.055e-6
AEKVRNLPAGHGLNAQ,Enrichment score,[1],-0.0001779
same,Enrichment score,[2],-0.0001336
same,Enrichment score,[3],-7.319e-5
same,Enrichment score,[4],-9.799e-5
same,Enrichment score,[5],2.049e-5
same,Enrichment score,[6]; [15],-2.569e-5
same,Enrichment score,[6]; [16],-2.569e-5
same,Enrichment score,[7]; [15],0.0001149
same,Enrichment score,[7]; [17],0.0001149
same,Enrichment score,[8],-0.0001285
same,Enrichment score,[9],6.942e-5
same,Enrichment score,[10]; [18],1.968e-5
same,Enrichment score,[11],-0.0001276
same,Enrichment score,[12],-3.983e-5
same,Enrichment score,[13],4.971e-5
same,Enrichment score,[14],9.652e-5
AGGVAVIKAGAATEV,Enrichment score,[1],7.19e-5
same,Enrichment score,[2],1.586e-6
same,Enrichment score,[3],-2.727e-5
same,Enrichment score,[4],-4.862e-5
same,Enrichment score,[5],-0.0001062
same,Enrichment score,[6]; [15],-3.191e-5
same,Enrichment score,[6]; [16],-3.191e-5
same,Enrichment score,[7]; [15],-7.134e-5
same,Enrichment score,[7]; [17],-7.134e-5
same,Enrichment score,[8],-1.359e-5
same,Enrichment score,[9],-0.0001037
same,Enrichment score,[10]; [18],-1.203e-5
same,Enrichment score,[11],-5.895e-5
same,Enrichment score,[12],5.455e-5
same,Enrichment score,[13],9.791e-5
same,Enrichment score,[14],5.039e-6
AKAAVEEGIVAGGGV,Enrichment score,[1],-4.28e-5
same,Enrichment score,[2],7.202e-5
same,Enrichment score,[3],-4.524e-5
same,Enrichment score,[4],-1.352e-5
same,Enrichment score,[5],-5.707e-5
same,Enrichment score,[6]; [15],-0.0001294
same,Enrichment score,[6]; [16],-0.0001294
same,Enrichment score,[7]; [15],-0.0001034
same,Enrichment score,[7]; [17],-0.0001034
same,Enrichment score,[8],-1.697e-5
same,Enrichment score,[9],3.575e-5
same,Enrichment score,[10]; [18],4.678e-5
same,Enrichment score,[11],7.661e-5
same,Enrichment score,[12],0.0004148
same,Enrichment score,[13],-4.13e-5
same,Enrichment score,[14],0.000168
ALVREGLRNVAAGANP,Enrichment score,[1],-4.256e-6
same,Enrichment score,[2],-2.589e-5
same,Enrichment score,[3],-1.221e-5
same,Enrichment score,[4],-1.187e-5
same,Enrichment score,[5],-2.514e-5
same,Enrichment score,[6]; [15],-2.328e-5
same,Enrichment score,[6]; [16],-2.328e-5
same,Enrichment score,[7]; [15],-1.951e-5
same,Enrichment score,[7]; [17],-1.951e-5
same,Enrichment score,[8],-1.438e-5
same,Enrichment score,[9],-2.044e-5
same,Enrichment score,[10]; [18],-2.1402e-5
same,Enrichment score,[11],-1.826e-5
same,Enrichment score,[12],-2.185e-5
same,Enrichment score,[13],-9.201e-6
same,Enrichment score,[14],-1.908e-5
